pIC50: −log10 of the molar value. Where only a bound is given, the exact number is not on record here.

The target of the assay is HPK1 kinase (Homo sapiens (Human), UniProt Q92918). In words: HPK1 kinase activity inhibition (ADP-Glo Kinase Assay). The assay is classed as biochemical. Conditions: HPK1, MBP substrate, ATP, 25° C. 60 min. The procedure: Test Example 1: Detection of Compound's Ability to Inhibit HPK1 Kinase Activity (Method 1)
The specific operation is as follows: configure the enzymatic reaction system buffer (10 mM MOPS, pH 7.2, 5 mM β-glycerol-phosphate, 10 mM MgCl2, 0.8 mM EDTA, 2 mM EGTA, 0.1 mM DTT); the test compound (1 mM the compound stock solution in DMSO) was diluted with buffer to the highest concentration of 60 uM (containing 6% DMSO), and the compound with a concentration of 60 μM was initially diluted 5 times with a buffer containing 6% DMSO for a total of 8 points of gradient concentration; then dilute HPK1 kinase to 30 nM in buffer. Add 2 μl of HPK1 kinase diluent to each well of a Greiner 384-well microplate (Cat. No. 784075), and add 2 μl of buffer to the control well; add 1 μl of the diluted compound to the reaction well after brief centrifugation, and add 1 μl buffer solution containing 6% DMSO to the control well; after short centrifugation, place in a 25° C. constant temperature incubator (Shanghai Yiheng Scientific Instrument Co., Ltd., Cat. No.: LRH-150) and incubate for 20 minutes. Add 3 μl of reaction substrate (10 μM MBP and 20 μM ATP dissolved in distilled water) to each well, briefly centrifuge and incubate in a constant temperature incubator at 25° C. for 60 min, and use ADP-Glo Kinase Assay Kit to detect the enzymatic reaction activity, ADP-Glo Kinase Assay Kit detection is carried out according to the operating instructions of the kit. Data are described using the half maximal inhibitory concentration IC50 of the compound.
On the technique in general: In ADP-Glo the light output rises with the ADP produced.

Chain of HPK1 kinase (Q92918 whole entry): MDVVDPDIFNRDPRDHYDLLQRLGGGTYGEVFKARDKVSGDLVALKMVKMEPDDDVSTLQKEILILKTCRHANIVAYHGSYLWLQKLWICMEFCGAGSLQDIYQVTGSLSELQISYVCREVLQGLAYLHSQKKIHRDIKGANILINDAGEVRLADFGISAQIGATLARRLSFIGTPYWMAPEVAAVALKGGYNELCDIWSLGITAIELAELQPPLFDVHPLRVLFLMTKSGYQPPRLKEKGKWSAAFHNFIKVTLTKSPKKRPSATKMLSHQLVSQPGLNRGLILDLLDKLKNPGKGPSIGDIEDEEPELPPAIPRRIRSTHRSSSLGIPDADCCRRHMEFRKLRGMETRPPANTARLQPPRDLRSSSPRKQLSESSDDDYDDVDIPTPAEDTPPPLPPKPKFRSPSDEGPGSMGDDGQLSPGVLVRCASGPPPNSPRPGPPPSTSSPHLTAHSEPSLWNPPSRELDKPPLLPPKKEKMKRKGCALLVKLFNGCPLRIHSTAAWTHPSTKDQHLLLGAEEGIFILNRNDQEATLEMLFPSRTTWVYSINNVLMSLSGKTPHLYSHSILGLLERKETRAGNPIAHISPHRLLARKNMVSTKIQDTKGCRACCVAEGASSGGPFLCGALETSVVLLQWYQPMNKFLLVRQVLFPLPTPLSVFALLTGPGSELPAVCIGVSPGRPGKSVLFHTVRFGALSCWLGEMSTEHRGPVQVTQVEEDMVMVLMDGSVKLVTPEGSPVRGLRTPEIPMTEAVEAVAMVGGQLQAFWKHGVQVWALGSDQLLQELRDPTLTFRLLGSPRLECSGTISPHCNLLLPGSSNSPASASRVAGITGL

As usually defined, the pIC50 is the negative decadic logarithm of the IC50, by convention in mol/L. The low end stands for a high IC50, the high end for a low IC50. `COc1nc2c(cc1Nc1ncc3cccc(NCc4ccccc4)c3n1)CN(C)CC2` [Example 38, N8-Benzyl-N2-(2-methoxy-6-methyl-5,6,7,8-tetrahydro-1,6-naphthyridin-3-yl)quinazoline-2,8-diamine] had a pIC50 of 9.39.
Compound `COc1nc2c(cc1Nc1ncc3cccc(NCC(C)C)c3n1)CN(C)CC2` [Example 39, N8-isobutyl-N2-(2-methoxy-6-methyl-5,6,7,8-tetrahydro-1,6-naphthyridin-3-yl)quinazoline-2,8-diamine] gave a pIC50 of over 10.00.
`COc1nc2c(cc1Nc1ncc3cccc(-c4cccc(Cl)n4)c3n1)CN(C)CC2` [Example 40, 8-(6-chloropyridin-2-yl)-N-(2-methoxy-6-methyl-5,6,7,8-tetrahydro-1,6-naphthyridin-3-yl)quinazolin-2-amine] gave a pIC50 of over 10.00.
Turning to `COc1nc2c(cc1Nc1ncc3ccnc(NCC(C)(C)C)c3n1)CN(C)CC2` [Example 41, N2-(2-methoxy-6-methyl-5,6,7,8-tetrahydro-1,6-naphthyridin-3-yl)-N8-neopentylpyrido[3,4-d]pyrimidine-2,8-diamine], the pIC50 is over 10.00.
`COc1nc2c(cc1Nc1ncc3ccnc(N[C@@H](C)C(C)(C)C)c3n1)CN(C)CC2` [Example 42, (S)—N8-(3,3-dimethylbut-2-yl)-N2-(2-methoxy-6-methyl-5,6,7,8-tetrahydro-1,6-naphthyridin-3-yl)pyrido[3,4-d]pyrimidine-2,8-diamine] had a pIC50 of over 10.00.
Consider `COc1nc2c(cc1Nc1ncc3ccnc(-c4cc(C)nn4C)c3n1)CN(C)CC2` [Example 43, 8-(1,3-Dimethyl-1H-pyrazol-5-yl)-N-(2-methoxy-6-methyl-5,6,7,8-tetrahydro-1,6-naphthyridin-3-yl)pyrido[3,4-d]pyrimidin-2-amine], for which the pIC50 was 8.33.
`CCOc1nc2c(cc1Nc1ncc3cccc(-c4ccccc4OC)c3n1)CN(C)CC2` [Example 44, N-(2-ethoxy-6-methyl-5,6,7,8-tetrahydro-1,6-naphthyridin-3-yl)-8-(2-methoxyphenyl)quinazolin-2-amine] had a negative-log IC50 (pIC50) of over 10.00.
Consider `COc1ccccc1-c1cccc2cnc(Nc3cnc4c(c3)CN(C)CC4)nc12` [Example 45, 8-(2-methoxyphenyl)-N-(6-methyl-5,6,7,8-tetrahydro-1,6-naphthyridin-3-yl)quinazolin-2-amine], for which the pIC50 was over 10.00.
For `COc1ccccc1-c1cccc2cnc(Nc3cc4c(nc3C)CCN(C)C4)nc12` [Example 46, N-(2,6-dimethyl-5,6,7,8-tetrahydro-1,6-naphthyridin-3-yl)-8-(2-methoxyphenyl)quinazoline-2-amine], the pIC50 is 9.82.
To `CCOc1nc2c(cc1Nc1ncc3cccc(-c4cccnc4OC)c3n1)CN(C)CC2` [Example 47, N-(2-ethoxy-6-methyl-5,6,7,8-tetrahydro-1,6-naphthyridin-3-yl)-8-(2-methoxypyridin-3-yl) quinazolin-2-amine] belongs 8.56.
For `COc1ncccc1-c1cccc2cnc(Nc3cc4c(nc3C)CCN(C)C4)nc12` [Example 48, N-(2,6-dimethyl-5,6,7,8-tetrahydro-1,6-naphthyridin-3-yl)-8-(2-methoxypyridin-3-yl)quinazolin-2-amine], the negative-log IC50 (pIC50) was 8.71.
`CN1CCc2[nH]c(=O)c(Nc3ncc4ccnc(N5CCOCC5)c4n3)cc2C1` [Example 49, 6-methyl-3-((8-morpholinopyrido[3,4-d]pyrimidin-2-yl)amino)-5,6,7,8-tetrahydro-1,6-naphthyridine-2(1H)-one] showed a pIC50 of 7.57.
As to `CCOc1nc2c(cc1Nc1ncc3ccnc(NCC(C)(C)C)c3n1)CN(C)CC2` [Example 52, N2-(2-ethoxy-6-methyl-5,6,7,8-tetrahydro-1,6-naphthyridin-3-yl)-N8-neopentylpyrido[3,4-d]pyrimidine-2,8-diamine], the pIC50 was over 10.00.
Take `COc1nc2c(cc1Nc1ncc3cccc(-c4cnn(C)c4C)c3n1)CN(C)CC2` [Example 53, 8-(1,5-dimethyl-1H-pyrazol-4-yl)-N-(2-methoxy-6-methyl-5,6,7,8-tetrahydro-1,6-Naphthyridin-3-yl)quinazolin-2-amine]: the negative logarithm of the IC50 (pIC50) is over 10.00.
The same measure for `CCOc1nc2c(cc1Nc1ncc3cccc(-c4ccc(=O)n(C)c4)c3n1)CN(C)CC2` [Example 54, 5-(2-((2-ethoxy-6-methyl-5,6,7,8-tetrahydro-1,6-naphthyridin-3-yl)amino)quinazolin-8-yl)-1-methylpyridin-2(1H)-one]: 7.66; for `CCOc1nc2c(cc1Nc1ncc3cccc(-c4cnn(C)c4C)c3n1)CN(C)CC2` [Example 55, 8-(1,5-dimethyl-1H-pyrazol-4-yl)-N-(2-ethoxy-6-methyl-5,6,7,8-tetrahydro-1,6-naphthyridin-3-yl)quinazolin-2-amine]: 9.18.
`CCOc1nc2c(cc1Nc1ncc3ccnc(N[C@@H](CO)C(C)(C)C)c3n1)CN(C)CC2` [Example 57, (R)-2-((2-((2-ethoxy-6-methyl-5,6,7,8-tetrahydro-1,6-naphthyridin-3-yl)amino)pyrido[3,4-d]pyrimidin-8-yl)amino)-3,3-dimethylbutan-1-ol] gave a pIC50 of 9.60.
In turn, `CCOc1nc2c(cc1Nc1ncc3ccnc(N[C@H](C)C(C)(C)C)c3n1)CN(C)CC2` [Example 58, (R)—N8-(3,3-dimethylbut-2-yl)-N2-(2-ethoxy-6-methyl-5,6,7,8-tetrahydro-1,6-Naphthyridin-3-yl)pyrido[3,4-d]pyrimidine-2,8-diamine] showed a negative-log IC50 (pIC50) of over 10.00.
`COc1nc2c(cc1Nc1ncc3cccc(Cc4ccccc4)c3n1)CN(C)CC2` [Example 59, 8-benzyl-N-(2-methoxy-6-methyl-5,6,7,8-tetrahydro-1,6-naphthyridin-3-yl)quinazolin-2-amine] showed a pIC50 of over 10.00.
For the compound `Cc1c(-c2cccc3cnc(Nc4cc5c([nH]c4=O)CCN(C)C5)nc23)cnn1C` [Example 61, 3-((8-(1,5-dimethyl-1H-pyrazol-4-yl)quinazolin-2-yl)amino)-6-methyl-5,6,7,8-tetrahydro-1,6-naphthyridin-2(1H)-one], the pIC50 is over 10.00.
To `COc1ccccc1-c1nccc2cnc(Nc3cc4c([nH]c3=O)CCN(C)C4)nc12` [Example 62, 3-((8-(2-methoxyphenyl)pyrido[3,4-d]pyrimidin-2-yl)amino)-6-methyl-5,6,7,8-tetrahydro-1,6-naphthyridin-2(1H)-one] belongs 7.64.
With `CN1CCc2[nH]c(=O)c(Nc3ncc4ccnc(N5CCCCC5)c4n3)cc2C1` [Example 63, 6-methyl-3-((8-(piperidin-1-yl)pyrido[3,4-d]pyrimidin-2-yl)amino)-5,6,7,8-tetrahydro-1,6-naphthyridin-2(1H)-one], the pIC50 is 7.50. This pIC50 and that of the compound before are within 0.2 log units of each other.
The same measure for `CN1CCc2[nH]c(=O)c(Nc3ncc4ccnc(NCC(C)(C)C)c4n3)cc2C1` [Example 64, 6-methyl-3-((8-(neopentylamino)pyrido[3,4-d]pyrimidin-2-yl)amino)-5,6,7,8-tetrahydro-1,6-naphthyridin-2(1H)-one]: over 10.00; for `CCOc1nc2c(cc1Nc1ncc3ccnc(N4CC(C)(C)C4)c3n1)CN(C)CC2` [Example 65, 8-(3,3-dimethylazetidin-1-yl)-N-(2-ethoxy-6-methyl-5,6,7,8-tetrahydro-1,6-Naphthyridin-3-yl)pyrido[3,4-d]pyrimidin-2-amine]: 7.70.
The same measure for `CCOc1nc2c(cc1Nc1ncc3cccc(-c4c(C)nn(C)c4C)c3n1)CN(C)CC2` [Example 67, N-(2-ethoxy-6-methyl-5,6,7,8-tetrahydro-1,6-naphthyridin-3-yl)-8-(1,3,5-trimethyl-1H-pyrazol-4-yl)quinazolin-2-amine]: 7.63; for `CN1CCc2c(cc(Nc3ncc4ccnc(N5CCCCC5)c4n3)c(=O)n2C)C1` [Example 68, 1,6-dimethyl-3-((8-(piperidin-1-yl)pyrido[3,4-d]pyrimidin-2-yl)amino)-5,6,7,8-tetrahydro-1,6-naphthyridin-2(1H)-one]: 8.83; for `CN1CCc2c(cc(Nc3ncc4ccnc(N5CCOCC5)c4n3)c(=O)n2C)C1` [Example 69, 1,6-dimethyl-3-((8-morpholinopyrido[3,4-d]pyrimidin-2-yl)amino)-5,6,7,8-tetrahydro-1,6-naphthyridin-2(1H)-one]: 8.66.
To `CN1CCc2[nH]c(=O)c(Nc3ncc4ccnc(N5CCC(F)(F)CC5)c4n3)cc2C1` [Example 74, 3-((8-(4,4-difluoropiperidin-1-yl)pyrido[3,4-d]pyrimidin-2-yl)amino)-6-methyl-5,6,7,8-tetrahydro-1,6-naphthyridin-2(1H)-one] belongs 7.80; to `CN1CCc2[nH]c(=O)c(Nc3ncc4ccnc(C5=CCCCC5)c4n3)cc2C1` [Example 75, 3-((8-(cyclohex-1-en-1-yl)pyrido[3,4-d]pyrimidin-2-yl)amino)-6-methyl-5,6,7,8-tetra hydro-1,6-naphthyridin-2(1H)-one], over 10.00; to `CN1CCc2c(cc(Nc3ncc4ccnc(N5CCCCCC5)c4n3)c(=O)n2C)C1` [Example 80, 3-((8-(azepan-1-yl)pyrido[3,4-d]pyrimidin-2-yl)amino)-1,6-dimethyl-5,6,7,8-tetrahydro-1,6-naphthyridin-2(1H)-one], 9.21.

The values above are taken from patent US20230399327A1, “HIGH ACTIVITY HPK1 KINASE INHIBITOR” (ADLAI NORTYE BIOPHARMA CO., LTD., priority 2020, published 2023).
